Experimental data taken from patent US20160015036A1, “Methods and apparatuses related to pre- and post-dip teat treatment in milking facilities” (Aqua Access LLC, priority 2013, published 2016).

Columns and labels:
E. coli cells = settings: 100 ppm hypochlorite applied for 1 min.; cited from earlier work
E. coli = experiment: Bacteriocidal activity tests of colloidal disinfectant mix at low/intermediate/high FAC, E. coli; assay type: cell-based, Escherichia coli; settings: 200-300 ppm FAC in viscous post-dip solutions; 30 seconds
Protocol: (§1) FIG. 4 is an illustration of a test for bacteriocidal activity.
(§2) Colloid-based disinfectant mixing procedures were established as follows. Step 1—Mix 2 g GA into 90 mL of water, leave with constant slow mixing for 1 hour. Step 2—Generate chlorine-based oxidant by salt brine electrolysis. Measure FAC concentration by the Hach DPD technique. Step 3—Dilute free chlorine solution from fresh electrolyzed brine solution. Final FAC concentration to be 200 ppm or 300 ppm. Step 4—Add 1 g of pure lanolin (with no additives), fill up the volume to 100 mL. Mix with slow stirring or on a rotary carousel for another hour. If needed, add Brilliant Blue (food-grade) dye during the last mixing. Ready. Store at ambient temperature for up to 48 hours or 72 hours.
(§3) Also, 400 ppm FAC in the disinfectant colloid mix causes 7-log inactivation of E. coli, and 200 ppm FAC is sufficient for 6-log inactivation of S. aures. Higher FAC concentrations can be useful in pre-dip solutions for teat wash. 200-300 ppm FAC, which holds for a long time upon storage, can be sufficient for post-dip solutions. Note that the tests were performed under controlled laboratory conditions. Field test data might support the data, or might indicate that higher FAC concentrations are necessary.

S. aures = experiment: Bacteriocidal activity tests of colloidal disinfectant mix at low/intermediate/high FAC, S. aureus; assay type: cell-based, Staphylococcus aureus; settings: 200-300 ppm FAC in viscous post-dip solutions; 30 seconds
Protocol: as §1, §2, §3

In the case of OCl [sodium hypochlorite], the “E. coli cells killed” value (E. coli cells) is given as 10^6 cells, the “log inactivation of Escherichia coli” value (E. coli) is given as 6 log and the “log inactivation of Staphylococcus aureus” value (S. aures) is given as 6 log.
